Test [1] has as its system Human immunodeficiency virus 1. The experiment in a line: Antiviral activity against wild-type HIV1 in MT2 cells by MTT assay. Type of test: functional, organism-based. A general note: Tetrazolium assays rely on reduction of a dye to a coloured formazan, in cell work by metabolically active cells.
In a further test the test system is MT2. Briefly: Cytotoxicity against MT2 cells. Type of test: functional. To be noted: Homo sapiens.
Where [2] appears, read: Human immunodeficiency virus 1, MT2, read-out: EC50.

Usually EC50 stands for the concentration that produces a half-maximal response. As usually defined, the CC50 is the concentration that lowers cell viability or growth by half. Low values mean harm at low concentration, high ones better tolerance by the cells.

As to `CC(C)=CCOc1cc(Nc2ncccn2)ccc1C`, the EC50 in test [1] (setting [2]) came to 2.8 µM. Also, the midpoint of cytotoxicity in the test with MT2, the CC50, lay at 78 µM.
On the same counts, the results for `CC(C)=CCOc1cc(Nc2nccs2)ccc1Cl` are 0.3 µM and 26 µM.
On the same counts, the results for `CCCc1ccc(Nc2nccs2)cc1OCC=C(C)C` are 23 µM and 23 µM.
For `COc1ccc(Nc2nccs2)cc1OCC=C(C)C`, the EC50 in test [1] (setting [2]) was found to be 3.8 µM. Also, the CC50 with MT2 stood at 42 µM.
For the compound `CC(C)=CCOc1cc(Nc2ncccn2)ccc1Cl`, the midpoint of cytotoxicity with MT2, the CC50, lay at 2.5 µM.
On to `CC(C)=CCOc1cc(Nc2nccc(C(F)(F)F)n2)ccc1Cl`, for which the EC50 in test [1] (setting [2]) was found to be 0.065 µM. This compound displayed a CC50 in the test with MT2 of 2.5 µM.
The like results for `Cc1cn([C@H]2C=C[C@@H](CO)O2)c(=O)[nH]c1=O` [STAVUDINE] were, in that order, 3 µM and > 100 µM.
As for `CC(C)=CCOc1cc(Nc2nccs2)ccc1C#N`, the EC50 in test [1] (setting [2]) is 0.21 µM. In the test on MT2, this compound displayed a CC50 of 0.5 µM.
The compound `CSc1ccnc(Nc2ccc(Cl)c(OCC=C(C)C)c2)n1` registered a CC50 with MT2 of 2.8 µM. In other words, the single-digit micromolar range.
Regarding `CCc1ccc(Nc2nccs2)cc1OCC=C(C)C`, the concentration for a half-maximal effect (EC50) in test [1] (setting [2]) is 5 µM. Also, in the test with MT2, the CC50 was determined as 31 µM.
Turning to `Cc1ccnc2c1NC(=O)c1cccnc1N2C1CC1` [NEVIRAPINE], the CC50 in the test with MT2 is > 10 µM.
The compound `COc1ccnc(Nc2ccc(Cl)c(OCC=C(C)C)c2)n1` yielded a CC50 with MT2 of 9 µM.
As to `CC(C)=CCOc1cc(Nc2nccc(C)n2)ccc1Cl`, in test [1], the EC50 result is “Not Active”. Moreover, the CC50 in the test on MT2 was < 0.2 µM.
The like results for `CC(C)=CCOc1cc(Nc2nccs2)ccc1C(C)C` were, in that order, “Not Active” and 31 µM.
In the case of `CC(C)=CCOc1cc(NC(=S)c2ccoc2C)ccc1Cl` [UC 781], the EC50 in test [1] (setting [2]) amounted to 0.002 µM. Also, the CC50 in the test on MT2 is > 100 µM.
On to `CC(C)=CCOc1cc(Nc2ccccn2)ccc1C#N`, for which the EC50 result in test [1] is recorded as “Not Active”. Besides, the CC50 with MT2 was 0.29 µM.
Turning to `CC(C)=CCOc1cccc(Nc2nccs2)c1`, in test [1] (setting [2]), the half-maximal effective concentration (EC50) was 10 µM. For the same compound, the CC50 in the test with MT2 is 23 µM.
Regarding `CC(C)=CCOc1cc(Nc2ccccn2)ccc1C`, the EC50 entry in test [1] is given as “Not Active”. The compound also yielded a CC50 in the test with MT2 of 35 µM.
For `CC(C)=CCOc1cc(Nc2nccc(N)n2)ccc1Cl`, in the test with MT2, the CC50 worked out at 0.5 µM.
Take `CC(C)=CCOc1cc(Nc2ncccn2)ccc1C#N`: in test [1], the EC50 result is “Not Active”. For the same compound, in the test with MT2, the CC50 is < 0.2 µM.
As for `CC(C)=CCOc1cc(Nc2nccs2)ccc1C`, the EC50 in test [1] (setting [2]) turned out to be 3 µM. Half-maximal cytotoxicity with MT2 (CC50) was put at 17 µM.
`Cc1cc(C#N)cc(C)c1Oc1nc(Nc2ccc(C#N)cc2)nc(N)c1Br` [ETRAVIRINE]: the EC50 in test [1] (setting [2]) is < 0.002 µM. Further, the CC50 in the test on MT2 was > 1 µM.
On the same counts, the results for `CC(C)=CCOc1cccc(Nc2ncccn2)c1` are 30 µM and > 100 µM.
For `CC(C)=CCOc1cc(Nc2ccccn2)ccc1Cl`, in the test with MT2, the midpoint of cytotoxicity, the CC50, lay at 15 µM.

Source of the values: ChEMBL document CHEMBL1149373, “Computer-aided design of non-nucleoside inhibitors of HIV-1 reverse transcriptase” (Bioorg Med Chem Lett, 2006).
